Values quoted from earlier work as cited in patent publication US20050129762A1, “Extended release pharmaceutical dosage form” (Wyeth, priority 2003, published 2005).
Where a name gives a salt, the structure may show the parent alone.

Conditions: plural daily dosing regimen, immediate release tablets

COc1ccc(C(CN(C)C)C2(O)CCCCC2)cc1 (centres unmarked) [venlafaxine hydrochloride, 1-[2-(dimethylamino)-1-(4-methoxyphenyl)ethyl]-cyclohexanol]
Vomiting, share of patients: about seventeen | nausea, share of patients under treatment: about forty five
